# Key:
# TRPC6 [1] = target: T1, TRPC6 (Homo sapiens, UniProt Q9Y210); experiment: FLIPR Ca2+ influx measurement, OAG-activated TRPC6 HEK293 cells; format: cell-based; details: 30 μM OAG
# T1 construct: expressed in transfected cells; host or cells: HEK293 (inducible expression)
# T1 sequence (Q9Y210 1-931): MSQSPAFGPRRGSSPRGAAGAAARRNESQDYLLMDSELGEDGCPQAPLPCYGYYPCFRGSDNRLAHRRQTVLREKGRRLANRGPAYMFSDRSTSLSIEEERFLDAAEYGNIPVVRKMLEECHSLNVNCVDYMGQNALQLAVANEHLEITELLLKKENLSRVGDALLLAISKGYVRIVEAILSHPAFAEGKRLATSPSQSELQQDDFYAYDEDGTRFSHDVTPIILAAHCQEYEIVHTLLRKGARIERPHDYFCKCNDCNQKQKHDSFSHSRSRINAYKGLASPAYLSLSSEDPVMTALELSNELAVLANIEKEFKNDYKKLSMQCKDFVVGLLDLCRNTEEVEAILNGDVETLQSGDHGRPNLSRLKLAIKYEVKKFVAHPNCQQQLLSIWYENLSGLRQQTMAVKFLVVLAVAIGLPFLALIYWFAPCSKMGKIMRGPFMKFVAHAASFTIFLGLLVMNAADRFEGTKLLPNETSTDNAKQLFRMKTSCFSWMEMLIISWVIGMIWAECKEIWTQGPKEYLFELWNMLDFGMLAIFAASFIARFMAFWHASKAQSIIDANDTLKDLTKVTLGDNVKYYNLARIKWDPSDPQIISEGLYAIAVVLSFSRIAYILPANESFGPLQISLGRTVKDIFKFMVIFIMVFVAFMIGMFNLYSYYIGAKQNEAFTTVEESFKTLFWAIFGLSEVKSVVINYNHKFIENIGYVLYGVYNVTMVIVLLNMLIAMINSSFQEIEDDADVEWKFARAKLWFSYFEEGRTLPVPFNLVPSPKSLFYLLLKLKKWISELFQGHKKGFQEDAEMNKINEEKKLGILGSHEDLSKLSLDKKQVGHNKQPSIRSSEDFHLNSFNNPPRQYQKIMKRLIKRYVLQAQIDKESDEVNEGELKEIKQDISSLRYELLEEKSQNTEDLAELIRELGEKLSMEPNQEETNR
# Excerpt: In general, cells are provided which express a TRPC channel. Such cells can be produced using genetic methods known to a person skilled in the art. After having induced the expression of the TRPC channel, cells are usually plated into e.g. microtiter plates and grown. Usually the cells grow at the bottom of multiwell plates and are fixed. Thereafter, the cells are generally washed and loaded with a dye in a suitable loading buffer, preferably with a fluorescent dye such as fluo4am. After having removed the loading buffer, the cells are incubated with the test compound or modulator, in particular with a biochemical or chemical test compound as described above, e.g. in the form of a chemical compound library. Ca^2+ measurements can be carried out using e.g. a Fluorescence Imaging Plate Reader (FLIPR). To stimulate Ca^2+ influx through the TRPC channel a channel activator such as OAG should generally be applied.
# TRPC3 and TRPC6 were directly activated by application of oleoyl-2-acetyl-sn-glycerol (OAG), a membrane permeable diacylglycerol analogue.
# (A, C) Time-dependent changes of intracellular Ca^2+ concentration ([Ca^2+]i) of fluo-4-loaded induced TRPC3 HEK293 cells (A) and TRPC6 HEK293 cells (C). […] Measurements were performed in 96er well plates using FLIPR (Molecular Devices, Sunnyvale, Calif., USA) (B, D) Determination of norgestimates IC50 value on TRPC3 (B) and TRPC6 (D). […]
# TRPC6 [2] = target: T1, TRPC6; experiment: Whole-cell patch clamp, AlF4- activated TRPC6 HEK293 cells; format: cell-based; details: 10 μM
# Excerpt: Inhibition of TRPC6- and TRPC5-mediated Ca^2+ -influx by norgestimate monitored in fluorometric experiments with cell populations was validated and compared with whole-cell patch clamp recordings of single cells. Channels were indirectly excited with the same stimulus for better comparability of the norgestimate effect. Aluminium tetrafluoride (AIF^4−) applied intracellularly via the patch pipette activates G-proteins by mimicking GTP (Sternweis & Gilman, 1982; Bigay et al., 1987). Subsequently TRPC channels are stimulated and mediate non-specific cationic currents (FIG. 3 A, B) When 10 μM norgestimate were applied to activated TRPC6 channels, 89.9 ±3.1% (n=15) of the current measured at resting membrane potential was blocked. This inhibition was reversible as current amplitude increased after norgestimate wash out (FIG. 3 A).
# Effect of 10 μM norgestimate (NG) on whole-cell currents evoked by AlF4^− infusion into induced TRPC6— (A) and TRPC5 HEK 293 (B) cells. Whole cell currents recorded at −70 mV (left panels) and the corresponding current-voltage (I-V) relationships are shown (right panels). […] The curves were obtained during voltage ramps from −100 to +80 mV. (C) Statistical analysis of the norgestimate effect on TRPC5— and TRPC6-mediated currents. 10 μM norgestimate inhibit 25.9±5.7% (n=20) of TRPC5-mediated currents and 89.9±3.1% (n=15) of TRPC6-mediated currents (P<0.001, Wilcoxon test, two-sided).
smiles,measurement,setting,value
"C#C[C@]1(OC(C)=O)CC[C@H]2[C@@H]3CCC4=C/C(=N/O)CC[C@@H]4[C@H]3CC[C@@]21CC [norgestimate, D-17β-acetoxy-B-ethyl-17α ethinyl-gon-4-en-3-one oxime]",IC50,"TRPC6 [1]; FLIPR, n=4",5.2 ± 0.4 µM
same,TRPC6-mediated Ca2+ influx following application of OAG,TRPC6 [1]; cells preincubated with 30 μM norgestimate,strongly reduced
same,reversibility of TRPC6 current inhibition after wash out,TRPC6 [2],reversible
same,TRPC6 current blocked,"TRPC6 [2]; current at resting membrane potential (-70 mV), n=15",89.9 ±3.1%

# — patent US8455469B2, “Use of norgestimate as a selective inhibitor of TRPC3, TRPC6 and TRPC7 ion channels” (Sanofi, priority 2007, dated 2013)
